This is an account of results in patent US20080306056A1, “PYRAZOLE-DERIVATIVES AS FACTOR Xa INHIBITORS” (SANOFI-AVENTIS DEUTSCHLAND GMBH, priority 2002, published 2008).

The Ki is a dissociation constant, usually derived from enzyme kinetics or from competition with a known ligand.

T1 sequence (P00742 235-488 limits assumed): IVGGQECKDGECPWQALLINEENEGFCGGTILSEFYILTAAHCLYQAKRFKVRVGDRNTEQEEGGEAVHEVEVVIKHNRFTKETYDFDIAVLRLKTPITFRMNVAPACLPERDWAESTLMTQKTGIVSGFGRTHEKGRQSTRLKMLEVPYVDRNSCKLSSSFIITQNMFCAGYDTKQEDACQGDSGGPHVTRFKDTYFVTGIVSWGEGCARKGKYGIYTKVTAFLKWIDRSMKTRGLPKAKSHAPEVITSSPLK
T1 sequence (P00742 41-179 partner limits assumed): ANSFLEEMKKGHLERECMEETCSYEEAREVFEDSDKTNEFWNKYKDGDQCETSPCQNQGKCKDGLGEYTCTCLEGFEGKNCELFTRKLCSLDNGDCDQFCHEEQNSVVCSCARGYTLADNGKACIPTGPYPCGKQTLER

This assay has as its target T1, human factor Xa (Homo sapiens, UniProt P00742).
T1 construct: 25 μl human factor Xa (Enzyme Research Laboratories, Inc; South Bend, Ind.); purchased Enzyme Research Laboratories, Inc; South Bend, Ind
Briefly: Factor Xa assay (chromogenic, purified enzyme). Format: biochemical. As to conditions: inhibition constant for factor Xa; chromogenic substrate S-2765 140 μM, enzyme 0.5 nM, 25° C., pH 7.8; Ki=IC50/{1+(substrate concentration/Km)}; read-out: Ki(FXa). An outline of the steps: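 Human factor Xa (0.5 nM) pre-incubated 10 min with compound in TBS-PEG/DMSO, then S-2765 (140 μM) added; initial hydrolysis rate read at 405 nm, 25°C. IC50 by linear regression of relative rate vs log concentration; Ki = IC50/(1+[S]/Km).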
Take `CC(C)N1CCC(NC(=O)c2cc(C(=O)NCCN3CCOCC3)nn2Cc2cc(-c3ccc(Cl)s3)on2)CC1` [Example 70, 1-[5-(5-Chloro-thiophen-2-yl)-isoxazol-3-ylmethyl]-1H-pyrazole-3,5-dicarboxylic acid 5-[(1-isopropyl-piperidin-4-yl)-amide] 3-[(2-morpholin-4-yl-ethyl)-amide]]: the Ki was determined as 182 nM.

In the case of `CC(C)N1CCC(NC(=O)c2cc(C(=O)N3CCC(F)(F)CC3)nn2Cc2cc(-c3ccc(Cl)s3)on2)CC1` [Example 71, 2-[5-(5-Chloro-thiophen-2-yl)-isoxazol-3-ylmethyl]-5-(4,4-difluoro-piperidine-1-carbonyl)-2H-pyrazole-3-carboxylic acid (1-isopropyl-piperidin-4-yl)-amide], the Ki amounted to 184 nM. In the case of `CC(C)N1CCC(NC(=O)c2cc(C(=O)N3CCOC3=O)nn2Cc2cc(-c3ccc(Cl)s3)on2)CC1` [Example 72, 2-[5-(5-Chloro-thiophen-2-yl)-isoxazol-3-ylmethyl]-5-(2-oxo-oxazolidine-3-carbonyl)-2H-pyrazole-3-carboxylic acid (1-isopropyl-piperidin-4-yl)-amide] it was 92 nM. Take `CC(C)N1CCC(NC(=O)c2cc(C(=O)NCCN3CCNC3=O)nn2Cc2cc(-c3ccc(Cl)s3)on2)CC1` [Example 73, 1-[5-(5-Chloro-thiophen-2-yl)-isoxazol-3-ylmethyl]-1H-pyrazole-3,5-dicarboxylic acid 5-[(1-isopropyl-piperidin-4-yl)-amide] 3-{[2-(2-oxo-imidazolidin-1-yl)-ethyl]-amide}]: the Ki is 83 nM.

Turning to `CC(C)N1CCC(NC(=O)c2cc(C(=O)NCC(F)(F)F)nn2Cc2cc(-c3ccc(Cl)s3)on2)CC1` [Example 74, 1-[5-(5-Chloro-thiophen-2-yl)-isoxazol-3-ylmethyl]-1H-pyrazole-3,5-dicarboxylic acid 5-[(1-isopropyl-piperidin-4-yl)-amide] 3-[(2,2,2-trifluoro-ethyl)-amide]], the Ki came out at 86 nM. With `CC(C)N1CCC(NC(=O)c2cc(C(=O)NC3CCS(=O)(=O)C3)nn2Cc2cc(-c3ccc(Cl)s3)on2)CC1` (stereo not shown) [Example 75, 1-[5-(5-Chloro-thiophen-2-yl)-isoxazol-3-ylmethyl]-1H-pyrazole-3,5-dicarboxylic acid 3-[(1,1-dioxo-tetrahydro-1-thiophen-3-yl)-amide] 5-[(1-isopropyl-piperidin-4-yl)-amide]], the inhibition constant (Ki) worked out at 76 nM. For `CC(C)N1CCC(NC(=O)c2cc(C(=O)NCCCN3CCCC3=O)nn2Cc2cc(-c3ccc(Cl)s3)on2)CC1` [Example 76, 1-[5-(5-Chloro-thiophen-2-yl)-isoxazol-3-ylmethyl]-1H-pyrazole-3,5-dicarboxylic acid 5-[(1-isopropyl-piperidin-4-yl)-amide] 3-{[3-(2-oxo-pyrrolidin-1-yl)-propyl]-amide}], the Ki is 83 nM.

As to `CC(C)N1CCC(NC(=O)c2cc(C(=O)N3CCC3)nn2Cc2cc(-c3ccc(Cl)s3)on2)CC1` [Example 77, 5-(Azetidine-1-carbonyl)-2-[5-(5-chloro-thiophen-2-yl)-isoxazol-3-ylmethyl]-2H-pyrazole-3-carboxylic acid (1-isopropyl-piperidin-4-yl)-amide], the inhibitory constant (Ki) was determined as 63 nM. In the case of `CC(C)N1CCC(NC(=O)c2cc(C(=O)N3CCSC3)nn2Cc2cc(-c3ccc(Cl)s3)on2)CC1` [Example 78, 2-[5-(5-Chloro-thiophen-2-yl)-isoxazol-3-ylmethyl]-5-(thiazolidine-3-carbonyl)-2H-pyrazole-3-carboxylic acid (1-isopropyl-piperidin-4-yl)-amide] it was 144 nM; in that of `CC(C)N1CCC(NC(=O)c2cc(C(=O)NC(C(=O)O)C(F)(F)F)nn2Cc2cc(-c3ccc(Cl)s3)on2)CC1` (stereo not shown) [Example 79, 2-{[1-[5-(5-Chloro-thiophen-2-yl)-isoxazol-3-ylmethyl]-5-(1-isopropyl-piperidin-4-ylcarbamoyl)-1H-pyrazole-3-carbonyl]-amino}-3,3,3-trifluoro-propionic acid], 80 nM.

Consider `CC(C)N1CCC(NC(=O)c2cc(C(=O)NC[Si](C)(C)C)nn2Cc2cc(-c3ccc(Cl)s3)on2)CC1` [Example 80, 1-[5-(5-Chloro-thiophen-2-yl)-isoxazol-3-ylmethyl]-1H-pyrazole-3,5-dicarboxylic acid 5-[(1-isopropyl-piperidin-4-yl)-amide] 3-trimethylsilanylmethyl-amide], for which the Ki was determined as 149 nM.

On to `CC(C)N1CCC(NC(=O)c2cc(C(=O)N3CCC(N4CCCC4=O)CC3)nn2Cc2cc(-c3ccc(Cl)s3)on2)CC1` [Example 81, 2-[5-(5-Chloro-thiophen-2-yl)-isoxazol-3-ylmethyl]-5-[4-(2-oxo-pyrrolidin-1-yl)-piperidine-1-carbonyl]-2H-pyrazole-3-carboxylic acid (1-isopropyl-piperidin-4-yl)-amide], for which the Ki was determined as 142 nM. Turning to `CC(C)N1CCC(NC(=O)c2cc(C(=O)NS(C)(=O)=O)nn2Cc2cc(-c3ccc(Cl)s3)on2)CC1` [Example 82, 2-[5-(5-Chloro-thiophen-2-yl)-isoxazol-3-ylmethyl]-5-methanesulfonylaminocarbonyl-2H-pyrazole-3-carboxylic acid (1-isopropyl-piperidin-4-yl)-amide], the inhibition constant (Ki) came to 184 nM. As for `CC(C)N1CCC(NC(=O)c2cc(C(=O)N3CC(O)C3)nn2Cc2cc(-c3ccc(Cl)s3)on2)CC1` [Example 83, 2-[5-(5-Chloro-thiophen-2-yl)-isoxazol-3-ylmethyl]-5-(3-hydroxy-azetidine-1-carbonyl)-2H-pyrazole-3-carboxylic acid (1-isopropyl-piperidin-4-yl)-amide], the figure is 104 nM. With `CC(C)N1CCC(NC(=O)c2cc(-c3ccco3)n(Cc3cc(-c4ccc(Cl)s4)on3)n2)CC1` [Example 84, 1-[5-(5-Chloro-thiophen-2-yl)-isoxazol-3-ylmethyl]-5-furan-2-yl-1H-pyrazole-3-carboxylic acid (1-isopropyl-piperidin-4-yl)-amide], the inhibition constant (Ki) came out at 42 nM. As for `CC(C)N1CCC(NC(=O)c2cc(C(=O)O)n(Cc3cc(-c4ccc(Cl)s4)on3)n2)CC1` [Example 85, 2-[5-(5-Chloro-thiophen-2-yl)-isoxazol-3-ylmethyl]-5-(1-isopropyl-piperidin-4-ylcarbamoyl)-2H-pyrazole-3-carboxylic acid], the figure is 185 nM. As for `CC(C)N1CCC(NC(=O)c2cc(C(=O)N3CCC3)n(Cc3cc(-c4ccc(Cl)s4)on3)n2)CC1` [Example 86, 5-(Azetidine-1-carbonyl)-1-[5-(5-chloro-thiophen-2-yl)-isoxazol-3-ylmethyl]-1H-pyrazole-3-carboxylic acid (1-isopropyl-piperidin-4-yl)-amide], the figure is 142 nM; as for `CC(C)N1CCC(NC(=O)c2cc(C(=O)NCCS(N)(=O)=O)n(Cc3cc(-c4ccc(Cl)s4)on3)n2)CC1` [Example 87, 1-[5-(5-Chloro-thiophen-2-yl)-isoxazol-3-ylmethyl]-1H-pyrazole-3,5-dicarboxylic acid 3-[(1-isopropyl-piperidin-4-yl)-amide] 5-[(2-sulfamoyl-ethyl)-amide]], 181 nM; as for `CC(C)N1CCC(NC(=O)c2cc(C(=O)N(CCO)CCO)nn2Cc2cc(-c3ccc(Cl)s3)on2)CC1` [Example 88, 1-[5-(5-Chloro-thiophen-2-yl)-isoxazol-3-ylmethyl]-1H-pyrazole-3,5-dicarboxylic acid 3-[bis-(2-hydroxy-ethyl)-amide] 5-[(1-isopropyl-piperidin-4-yl)-amide]], 106 nM.
